Source: the NIST ThermoML archive (doi:10.1021/acs.jced.6b00471)
Numbers after ± are expanded uncertainties.

Tests used:
[1] = Liquid; for mass density: 298.15 K, 101.33 kPa, Pycnometric method; for Normal boiling temperature: Ebulliometric method (Recirculating still)
[2] = refractive index (Na D-line) (dimensionless); conditions: 298.15 K; 101.33 kPa; Liquid; Standard Abbe refractometry

| mass density [1] | Normal boiling temperature [1] | refractive index [2] | Compound |
| --- | --- | --- | --- |
| 863.8 ± 0.8 kg/m3 | 111.97 ± 0.2 °C | 1.3872 ± 0.0007 | CCC(C)OC(C)=O (stereo not given) [1-methylpropyl ethanoate] |
| 797.4 ± 0.7 kg/m3 | 107.68 ± 0.2 °C | 1.3931 ± 0.0007 | CC(C)CO [2-methyl-1-propanol] |
| – | 82.36 ± 0.2 °C | 1.3857 ± 0.0007 | CC(C)(C)O [2-methylpropan-2-ol] |
| 805.8 ± 0.7 kg/m3 | – | 1.397 ± 0.0007 | CCCCO [butan-1-ol] |
